Source: the supplement of paper PMC11061612

Assays:
[1] = system: DMS-114 (Small Cell Lung Carcinoma); test: Bliss excess, mean over the matrix (fraction); higher = more synergy
Procedure, shortened: (§1)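 Cell lines in DMEM/F12 or RPMI with 10% FBS were plated in 1536-well plates, held 24 hours at 37°C, 5% CO2, then given two-drug dose matrices for 72 hours (DMSO typically 0.2%). Viability was read by CellTiter-Glo 2.0 luminescence and scaled as inhibition from 0 (vehicle wells) to 1 (blank wells). Combination Emax is the second-highest inhibition in the matrix; Bliss excess is observed combination effect minus expected EA + EB − EA·EB, EA and EB being single-agent effects.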

[2] = system: KU812 (Chronic Myelogenous Leukemia); test: as above
Procedure, shortened: as §1

| SMILES | Bliss excess [1] | Bliss excess [2] |
| --- | --- | --- |
| Cc1c2c(nn1C)CSCc1cc(n(C)n1)CSc1cc(c3ccccc3c1)OCCCc1c(C(=O)O)n(C)c3c-2c(Cl)ccc13 [AZD5991] + CCN(CCO)CCCOc1ccc2c(Nc3cc(CC(=O)Nc4cccc(F)c4)[nH]n3)ncnc2c1 [AZD2811] (first compound max 1 µM, 7x7, partner max 1 µM) | 0.0287 | -0.0519 |
| Cc1c2c(nn1C)CSCc1cc(n(C)n1)CSc1cc(c3ccccc3c1)OCCCc1c(C(=O)O)n(C)c3c-2c(Cl)ccc13 [AZD5991] + CN(C)CCCOc1ccc(-c2ccc3ncc4c(c3c2)n(C2CCOCC2)c(=O)n4C)cn1 [AZD0156] (first compound max 1 µM, 7x7, partner max 1 µM) | 0.003 | -0.0788 |
| Cc1c2c(nn1C)CSCc1cc(n(C)n1)CSc1cc(c3ccccc3c1)OCCCc1c(C(=O)O)n(C)c3c-2c(Cl)ccc13 [AZD5991] + C[C@@H]1COCCN1C2=NC(=NC(=C2)C3(CC3)[S@](=N)(=O)C)C4=C5C=CNC5=NC=C4 [AZD6738] (first compound max 1 µM, 7x7, partner max 10 µM) | 0.0436 | 0.0296 |
| Cc1c2c(nn1C)CSCc1cc(n(C)n1)CSc1cc(c3ccccc3c1)OCCCc1c(C(=O)O)n(C)c3c-2c(Cl)ccc13 [AZD5991] + C[C@@H](Nc1cc(F)cc(F)c1)c1cc(C(=O)N(C)C)cc2c(=O)cc(N3CCOCC3)oc12 [AZD8186] (first compound max 1 µM, 7x7, partner max 3 µM) | -0.0338 | -0.0554 |
| Cc1c2c(nn1C)CSCc1cc(n(C)n1)CSc1cc(c3ccccc3c1)OCCCc1c(C(=O)O)n(C)c3c-2c(Cl)ccc13 [AZD5991] + Cc1cc2ncnn2cc1Nc1ncc2c(n1)n(C1CCOCC1)c(=O)n2C [AZD7648] (first compound max 1 µM, 7x7, partner max 10 µM) | 0.0346 | -0.0046 |
| Cc1c2c(nn1C)CSCc1cc(n(C)n1)CSc1cc(c3ccccc3c1)OCCCc1c(C(=O)O)n(C)c3c-2c(Cl)ccc13 [AZD5991] + Cn1cnc2c(F)c(Nc3ccc(Br)cc3Cl)c(C(=O)NOCCO)cc21 [Selumetinib] (first compound max 1 µM, 7x7, partner max 3 µM) | -0.0317 | 0.0224 |
| C[C@@H]1COCCN1c1cc(C2([S@](C)(=N)=O)CC2)nc(-c2ccnc3[nH]ccc23)n1 [AZD6738] + O=C(c1cc(Cc2n[nH]c(=O)c3ccccc23)ccc1F)N1CCN(C(=O)C2CC2)CC1 [Olaparib] (first compound max 10 µM, 7x7, partner max 10 µM) | 0.0254 | -0.0429 |
| Cc1cc2ncnn2cc1Nc1ncc2c(n1)n(C1CCOCC1)c(=O)n2C [AZD7648] + C=CCn1c(=O)c2cnc(Nc3ccc(N4CCN(C)CC4)cc3)nc2n1-c1cccc(C(C)(C)O)n1 [AZD1775] (first compound max 10 µM, partner max 1 µM) | -0.0151 | 0.0177 |
| Cc1cc2ncnn2cc1Nc1ncc2c(n1)n(C1CCOCC1)c(=O)n2C [AZD7648] + CCN(CCO)CCCOc1ccc2c(Nc3cc(CC(=O)Nc4cccc(F)c4)[nH]n3)ncnc2c1 [AZD2811] (first compound max 10 µM, 7x7, partner max 1 µM) | 0.0309 | 0.0578 |
| Cc1cc2ncnn2cc1Nc1ncc2c(n1)n(C1CCOCC1)c(=O)n2C [AZD7648] + CN(C)CCCOc1ccc(-c2ccc3ncc4c(c3c2)n(C2CCOCC2)c(=O)n4C)cn1 [AZD0156] (first compound max 10 µM, 7x7, partner max 1 µM) | -0.0268 | 0.0197 |
| Cc1cc2ncnn2cc1Nc1ncc2c(n1)n(C1CCOCC1)c(=O)n2C [AZD7648] + C[C@@H]1COCCN1C2=NC(=NC(=C2)C3(CC3)[S@](=N)(=O)C)C4=C5C=CNC5=NC=C4 [AZD6738] (first compound max 10 µM, 7x7, partner max 10 µM) | -0.0072 | 0.0087 |
| Cc1cc2ncnn2cc1Nc1ncc2c(n1)n(C1CCOCC1)c(=O)n2C [AZD7648] + O=C(c1cc(Cc2n[nH]c(=O)c3ccccc23)ccc1F)N1CCN(C(=O)C2CC2)CC1 [Olaparib] (first compound max 10 µM, 7x7, partner max 10 µM) | -0.0092 | -0.0425 |
| COc1cccc2c1C(=O)c1c(O)c3c(c(O)c1C2=O)C[C@@](O)(C(=O)CO)C[C@@H]3O[C@H]1C[C@H](N)[C@H](O)[C@H](C)O1 [Doxorubicin] + Cc1cc2ncnn2cc1Nc1ncc2c(n1)n(C1CCOCC1)c(=O)n2C [AZD7648] (first compound max 1 µM, 7x7, partner max 10 µM) | 0.0288 | 0.0256 |
| COc1cccc(OCCCN)c1-c1cc(Nc2cnc(C#N)cn2)n[nH]1 [Prexasertib] + C=CCn1c(=O)c2cnc(Nc3ccc(N4CCN(C)CC4)cc3)nc2n1-c1cccc(C(C)(C)O)n1 [AZD1775] (first compound max 1 µM, partner max 1 µM) | 0.0129 | -0.0401 |
| COc1cccc(OCCCN)c1-c1cc(Nc2cnc(C#N)cn2)n[nH]1 [Prexasertib] + CCc1c2c(nc3ccc(O)cc13)-c1cc3c(c(=O)n1C2)COC(=O)[C@]3(O)CC [SN-38] (first compound max 1 µM, 7x7, partner max 0.3 µM) | 0.0663 | -0.124 |
| COc1cccc(OCCCN)c1-c1cc(Nc2cnc(C#N)cn2)n[nH]1 [Prexasertib] + CN(C)CCCOc1ccc(-c2ccc3ncc4c(c3c2)n(C2CCOCC2)c(=O)n4C)cn1 [AZD0156] (first compound max 1 µM, 7x7, partner max 1 µM) | 0.0778 | -0.061 |
| COc1cccc(OCCCN)c1-c1cc(Nc2cnc(C#N)cn2)n[nH]1 [Prexasertib] + C[C@@H]1COCCN1C2=NC(=NC(=C2)C3(CC3)[S@](=N)(=O)C)C4=C5C=CNC5=NC=C4 [AZD6738] (first compound max 1 µM, 7x7, partner max 10 µM) | 0.0485 | -0.046 |
| COc1cccc(OCCCN)c1-c1cc(Nc2cnc(C#N)cn2)n[nH]1 [Prexasertib] + Cc1cc2ncnn2cc1Nc1ncc2c(n1)n(C1CCOCC1)c(=O)n2C [AZD7648] (first compound max 1 µM, 7x7, partner max 10 µM) | 0.0127 | -0.0891 |
| COc1cccc(OCCCN)c1-c1cc(Nc2cnc(C#N)cn2)n[nH]1 [Prexasertib] + O=C(c1cc(Cc2n[nH]c(=O)c3ccccc23)ccc1F)N1CCN(C(=O)C2CC2)CC1 [Olaparib] (first compound max 1 µM, 7x7, partner max 10 µM) | 0.0146 | -0.0947 |
| COc1cc2c(cc1OCCCCCOc1cc3c(cc1OC)C(=O)N1C=C(C)C[C@H]1C=N3)N=C[C@@H]1CC(C)=CN1C2=O [SG3199] + O=C(c1cc(Cc2n[nH]c(=O)c3ccccc23)ccc1F)N1CCN(C(=O)C2CC2)CC1 [Olaparib] (first compound max 0.001 µM, 7x7, partner max 10 µM) | -0.0398 | -0.0288 |
| CCc1c2c(nc3ccc(O)cc13)-c1cc3c(c(=O)n1C2)COC(=O)[C@]3(O)CC [SN-38] + CN(C)CCCOc1ccc(-c2ccc3ncc4c(c3c2)n(C2CCOCC2)c(=O)n4C)cn1 [AZD0156] (first compound max 0.3 µM, 7x7, partner max 1 µM) | 0.0147 | -0.027 |
| CCc1c2c(nc3ccc(O)cc13)-c1cc3c(c(=O)n1C2)COC(=O)[C@]3(O)CC [SN-38] + O=C(c1cc(Cc2n[nH]c(=O)c3ccccc23)ccc1F)N1CCN(C(=O)C2CC2)CC1 [Olaparib] (first compound max 0.3 µM, 7x7, partner max 10 µM) | 0.0741 | 0.0053 |
| CC(=O)Nc1cccc(-n2c(=O)n(C3CC3)c(=O)c3c(Nc4ccc(I)cc4F)n(C)c(=O)c(C)c32)c1 [Trametinib] + Cc1nc(-c2cn3c(n2)-c2ccc(-c4cnn(C(C)(C)C(N)=O)c4)cc2OCC3)n(C(C)C)n1 [Taselisib] (first compound max 1 µM, 7x7, partner max 10 µM) | 0.079 | 0.111 |
| CC1(C)CCC(CN2CCN(c3ccc(C(=O)NS(=O)(=O)c4ccc(NCC5CCOCC5)c([N+](=O)[O-])c4)c(Oc4cnc5[nH]ccc5c4)c3)CC2)=C(c2ccc(Cl)cc2)C1 [Venetoclax] + C1CN(CCC1(C(=O)N[C@@H](CCO)C2=CC=C(C=C2)Cl)N)C3=NC=NC4=C3C=CN4 [Capivasertib] (first compound max 1 µM, 7x7, partner max 3 µM) | -0.0467 | -0.046 |
| CC1(C)CCC(CN2CCN(c3ccc(C(=O)NS(=O)(=O)c4ccc(NCC5CCOCC5)c([N+](=O)[O-])c4)c(Oc4cnc5[nH]ccc5c4)c3)CC2)=C(c2ccc(Cl)cc2)C1 [Venetoclax] + C=CCn1c(=O)c2cnc(Nc3ccc(N4CCN(C)CC4)cc3)nc2n1-c1cccc(C(C)(C)O)n1 [AZD1775] (first compound max 1 µM, partner max 1 µM) | 0.0056 | 0.0294 |
| CC1(C)CCC(CN2CCN(c3ccc(C(=O)NS(=O)(=O)c4ccc(NCC5CCOCC5)c([N+](=O)[O-])c4)c(Oc4cnc5[nH]ccc5c4)c3)CC2)=C(c2ccc(Cl)cc2)C1 [Venetoclax] + CCN(CCO)CCCOc1ccc2c(Nc3cc(CC(=O)Nc4cccc(F)c4)[nH]n3)ncnc2c1 [AZD2811] (first compound max 1 µM, 7x7, partner max 1 µM) | -0.0334 | -0.0433 |
| CC1(C)CCC(CN2CCN(c3ccc(C(=O)NS(=O)(=O)c4ccc(NCC5CCOCC5)c([N+](=O)[O-])c4)c(Oc4cnc5[nH]ccc5c4)c3)CC2)=C(c2ccc(Cl)cc2)C1 [Venetoclax] + CN(C)CCCOc1ccc(-c2ccc3ncc4c(c3c2)n(C2CCOCC2)c(=O)n4C)cn1 [AZD0156] (first compound max 1 µM, 7x7, partner max 1 µM) | -0.0436 | -0.0404 |
| CC1(C)CCC(CN2CCN(c3ccc(C(=O)NS(=O)(=O)c4ccc(NCC5CCOCC5)c([N+](=O)[O-])c4)c(Oc4cnc5[nH]ccc5c4)c3)CC2)=C(c2ccc(Cl)cc2)C1 [Venetoclax] + COc1cc(Nc2ncc3c(n2)-c2ccc(Cl)cc2C(c2c(F)cccc2OC)=NC3)ccc1C(=O)O [Alisertib] (first compound max 1 µM, 7x7, partner max 10 µM) | 0.0341 | -0.0121 |
